Values after ≈ are worked out from the molar mass of the structure shown. Active and inactive are the calls of the source. The rule behind the calls is not given here. Non-standard residues stand in square brackets, D forms with d. Residues, ends and D or L forms follow the SMILES beside them. Groups on a side chain read outwards from the residue. *: point of attachment. Lys(α,ε-(ArgTrp)2) = N=C(N)NCCC[C@H](N)C(=O)N[C@@H](Cc1c[nH]c2ccccc12)C(=O)NCCCC[C@H](NC(=O)[C@H](Cc1c[nH]c2ccccc12)NC(=O)[C@@H](N)CCCNC(=N)N)C(=O)*; βAla = NCCC(=O)O
How the values were obtained:
Escherichia coli [1] = assay: Antibacterial activity against ampicillin and streptomycin-resistant Escherichia coli D31 assessed as growth inhibition after 18 hrs by standard broth microdilution assay; format: functional, organism-based; settings: D31, 18 h
Staphylococcus aureus [2] = assay: Antibacterial activity against multidrug-resistant Staphylococcus aureus ATCC BAA-44 assessed as growth inhibition after 18 hrs by standard broth microdilution assay; format: functional, organism-based; settings: ATCC BAA-44, 18 h
[3] = Induction of hemolysis in sheep erythrocytes after 60 mins by spectrophotometer analysis; format: cell-based, Ovis aries, Erythrocyte; settings: read-out: HD50
Staphylococcus aureus [4] = assay: Antibacterial activity against multidrug-resistant Staphylococcus aureus ATCC BAA-44 assessed as growth inhibition measured over 400 generation period by standard broth microdilution assay; format: functional, organism-based
Escherichia coli [5] = assay: Antibacterial activity against ampicillin and streptomycin-resistant Escherichia coli D31 assessed as growth inhibition measured over 400 generation period by standard broth microdilution assay; format: functional, organism-based
Acinetobacter baumannii [6] = assay: Antibacterial activity against multidrug-resistant Acinetobacter baumannii ATCC BAA-747 assessed as growth inhibition measured over 400 generation period by standard broth microdilution assay; format: functional, organism-based
Acinetobacter baumannii [7] = assay: Antibacterial activity against multidrug-resistant Acinetobacter baumannii ATCC BAA-747 assessed as growth inhibition after 18 hrs by standard broth microdilution assay; format: functional, organism-based; settings: ATCC BAA-747, 18 h
Staphylococcus aureus [8] = assay: Antibacterial activity against multidrug-resistant Staphylococcus aureus ATCC BAA-44 assessed as growth inhibition measured over 400 generation period by standard broth microdilution assay relative to 50% growth inhibition after first day; format: functional
Escherichia coli [9] = assay: Antibacterial activity against ampicillin and streptomycin-resistant Escherichia coli D31 assessed as growth inhibition measured over 400 generation period by standard broth microdilution assay relative to 50% growth inhibition after first day; format: functional
Acinetobacter baumannii [10] = assay: Antibacterial activity against multidrug-resistant Acinetobacter baumannii ATCC BAA-747 assessed as growth inhibition measured over 400 generation period by standard broth microdilution assay relative to 50% growth inhibition after first day; format: functional
[11] = Ratio of compound hemolytic index to indolicidin hemolytic index for ratio of HD50 for sheep erythrocytes to IC50 for Escherichia coli D31
[12] = Ratio of compound hemolytic index to indolicidin hemolytic index for ratio of HD50 for sheep erythrocytes to IC50 for Staphylococcus aureus ATCC BAA-44

Compound	IC50 (Escherichia coli [1])	IC50 (Staphylococcus aureus [2])	HC50 at 1 h [3]	IC50 (Acinetobacter baumannii [7])	further results
N=C(N)NCCC[C@H](NC(=O)[C@H](Cc1c[nH]c2ccccc12)NC(=O)[C@H](CCCNC(=N)N)NC(=O)[C@H](Cc1c[nH]c2ccccc12)NC(=O)[C@@H](N)CCCNC(=N)N)C(=O)N[C@@H](Cc1c[nH]c2ccccc12)C(=O)NCCCC[C@H](NC(=O)[C@H](Cc1c[nH]c2ccccc12)NC(=O)[C@H](CCCNC(=N)N)NC(=O)[C@H](Cc1c[nH]c2ccccc12)NC(=O)[C@H](CCCNC(=N)N)NC(=O)[C@H](Cc1c[nH]c2ccccc12)NC(=O)[C@@H](N)CCCNC(=N)N)C(=O)NCCCC[C@H](NC(=O)[C@H](CCCCNC(=O)[C@H](Cc1c[nH]c2ccccc12)NC(=O)[C@H](CCCNC(=N)N)NC(=O)[C@H](Cc1c[nH]c2ccccc12)NC(=O)[C@H](CCCNC(=N)N)NC(=O)[C@H](Cc1c[nH]c2ccccc12)NC(=O)[C@@H](N)CCCNC(=N)N)NC(=O)[C@H](Cc1c[nH]c2ccccc12)NC(=O)[C@H](CCCNC(=N)N)NC(=O)[C@H](Cc1c[nH]c2ccccc12)NC(=O)[C@H](CCCNC(=N)N)NC(=O)[C@H](Cc1c[nH]c2ccccc12)NC(=O)[C@@H](N)CCCNC(=N)N)C(=O)NCCC(N)=O (HELM PEPTIDE1{R.W.R.W.R.W.K.K.[bAla].[am]}|PEPTIDE2{R.W.R.W.R.W.K}|PEPTIDE3{R.W.R.W.R.W}|PEPTIDE4{R.W.R.W.R.W}$PEPTIDE1,PEPTIDE4,7:R3-6:R2|PEPTIDE1,PEPTIDE2,8:R3-7:R2|PEPTIDE2,PEPTIDE3,7:R3-6:R2$$$V2.0)	20.8 µg/mL (≈ 4.54 µM)	31.7 µg/mL (≈ 6.92 µM)	365 µg/mL		
CC[C@H](C)[C@H](NC(C)=O)C(=O)N[C@@H](CC(C)C)C(=O)N1CCC[C@H]1C(=O)N[C@@H](Cc1c[nH]c2ccccc12)C(=O)N[C@@H](CCCCN)C(=O)N[C@@H](Cc1c[nH]c2ccccc12)C(=O)N1CCC[C@H]1C(=O)N[C@@H](Cc1c[nH]c2ccccc12)C(=O)N[C@@H](Cc1c[nH]c2ccccc12)C(=O)N1CCC[C@H]1C(=O)N[C@@H](Cc1c[nH]c2ccccc12)C(=O)N[C@@H](CCCNC(=N)N)C(=O)N[C@@H](CCCNC(=N)N)C(N)=O					growth inhibition (GI) (Staphylococcus aureus [4]): Active; growth inhibition (GI) (Escherichia coli [5]): Active; growth inhibition (GI) (Acinetobacter baumannii [6]): Active
NCCCC[C@H](N)C(=O)N[C@@H](Cc1ccc(O)cc1)C(=O)NCCCC[C@H](NC(=O)[C@H](Cc1ccc(O)cc1)NC(=O)[C@@H](N)CCCCN)C(=O)NCCCC[C@H](NC(=O)[C@H](CCCCNC(=O)[C@H](Cc1ccc(O)cc1)NC(=O)[C@@H](N)CCCCN)NC(=O)[C@H](Cc1ccc(O)cc1)NC(=O)[C@@H](N)CCCCN)C(=O)NCCC(N)=O	84.4 µg/mL (≈ 51.5 µM)	240 µg/mL (≈ 147 µM)	3740 µg/mL	360 µg/mL (≈ 220 µM)	
N=C(NCCCCCCNC(=N)NC(=N)Nc1ccc(Cl)cc1)NC(=N)Nc1ccc(Cl)cc1 [CHLORHEXIDINE]					fold change (FC) (Staphylococcus aureus [8]): 2.5; fold change (FC) (Escherichia coli [9]): 5
N=C(N)NCCC[C@H](N)C(=O)N[C@@H](Cc1ccccc1)C(=O)NCCCC[C@H](NC(=O)[C@H](Cc1ccccc1)NC(=O)[C@@H](N)CCCNC(=N)N)C(=O)NCCCC[C@H](NC(=O)[C@H](CCCCNC(=O)[C@H](Cc1ccccc1)NC(=O)[C@@H](N)CCCNC(=N)N)NC(=O)[C@H](Cc1ccccc1)NC(=O)[C@@H](N)CCCNC(=N)N)C(=O)NCCC(N)=O	30 µg/mL (≈ 17.8 µM)	180 µg/mL (≈ 107 µM)	2780 µg/mL	160 µg/mL (≈ 94.9 µM)	
N=C(N)NCCC[C@H](NC(=O)[C@H](Cc1c[nH]c2ccccc12)NC(=O)[C@H](CCCNC(=N)N)NC(=O)[C@H](Cc1c[nH]c2ccccc12)NC(=O)[C@H](CCCNC(=N)N)NC(=O)[C@H](Cc1c[nH]c2ccccc12)NC(=O)[C@@H](N)CCCNC(=N)N)C(=O)N[C@@H](Cc1c[nH]c2ccccc12)C(=O)O (H-RWRWRWRW-OH)					growth inhibition (GI) (Staphylococcus aureus [4]): Active; growth inhibition (GI) (Escherichia coli [5]): Active; growth inhibition (GI) (Acinetobacter baumannii [6]): Active
N=C(N)NCCC[C@H](N)C(=O)N[C@@H](Cc1ccc(O)cc1)C(=O)NCCCC[C@H](NC(=O)[C@H](Cc1ccc(O)cc1)NC(=O)[C@@H](N)CCCNC(=N)N)C(=O)NCCCC[C@H](NC(=O)[C@H](CCCCNC(=O)[C@H](Cc1ccc(O)cc1)NC(=O)[C@@H](N)CCCNC(=N)N)NC(=O)[C@H](Cc1ccc(O)cc1)NC(=O)[C@@H](N)CCCNC(=N)N)C(=O)NCCC(N)=O	12.6 µg/mL (≈ 7.2 µM)	45.7 µg/mL (≈ 26.1 µM)	2150 µg/mL	193 µg/mL (≈ 110 µM)	
GENTAMICIN					fold change (FC) (Acinetobacter baumannii [10]): 8; fold change (FC) (Escherichia coli [9]): 13
N=C(N)NCCC[C@H](N)C(=O)N[C@@H](Cc1c[nH]c2ccccc12)C(=O)NCCCC[C@H](NC(=O)[C@H](Cc1c[nH]c2ccccc12)NC(=O)[C@@H](N)CCCNC(=N)N)C(=O)NCCCC[C@H](NC(=O)[C@H](CCCCNC(=O)[C@H](Cc1c[nH]c2ccccc12)NC(=O)[C@@H](N)CCCNC(=N)N)NC(=O)[C@H](Cc1c[nH]c2ccccc12)NC(=O)[C@@H](N)CCCNC(=N)N)C(=O)NCCC(N)=O (H-RWK([Trp-Arg])K(Lys(α,ε-(ArgTrp)2))[βAla]-NH2)	3.9 µg/mL (≈ 2.12 µM)	15 µg/mL (≈ 8.14 µM)	1960 µg/mL	42 µg/mL (≈ 22.8 µM)	growth inhibition (GI) (Staphylococcus aureus [4]): Active; growth inhibition (GI) (Escherichia coli [5]): Active; growth inhibition (GI) (Acinetobacter baumannii [6]): Active; Ratio [11]: 10; Ratio [12]: 5
NC(=O)CCNC(=O)[C@H](CCCCNC(=O)[C@H](CCCCNC(=O)[C@H](Cc1c[nH]c2ccccc12)NC(=O)[C@@H](N)Cc1cnc[nH]1)NC(=O)[C@H](Cc1c[nH]c2ccccc12)NC(=O)[C@@H](N)Cc1cnc[nH]1)NC(=O)[C@H](CCCCNC(=O)[C@H](Cc1c[nH]c2ccccc12)NC(=O)[C@@H](N)Cc1cnc[nH]1)NC(=O)[C@H](Cc1c[nH]c2ccccc12)NC(=O)[C@@H](N)Cc1cnc[nH]1	30.6 µg/mL (≈ 17.3 µM)	43.3 µg/mL (≈ 24.5 µM)	1860 µg/mL	82.7 µg/mL (≈ 46.8 µM)	
CN[C@H](CC(C)C)C(=O)N[C@H]1C(=O)N[C@@H](CC(N)=O)C(=O)N[C@H]2C(=O)N[C@H]3C(=O)N[C@H](C(=O)N[C@H](C(=O)O)c4cc(O)cc(O)c4-c4cc3ccc4O)[C@H](O)c3ccc(c(Cl)c3)Oc3cc2cc(c3O[C@@H]2O[C@H](CO)[C@@H](O)[C@H](O)[C@H]2O[C@H]2C[C@](C)(N)[C@H](O)[C@H](C)O2)Oc2ccc(cc2Cl)[C@H]1O [VANCOMYCIN]					fold change (FC) (Staphylococcus aureus [8]): 2.5
NCCCC[C@H](N)C(=O)N[C@@H](Cc1ccccc1)C(=O)NCCCC[C@H](NC(=O)[C@H](Cc1ccccc1)NC(=O)[C@@H](N)CCCCN)C(=O)NCCCC[C@H](NC(=O)[C@H](CCCCNC(=O)[C@H](Cc1ccccc1)NC(=O)[C@@H](N)CCCCN)NC(=O)[C@H](Cc1ccccc1)NC(=O)[C@@H](N)CCCCN)C(=O)NCCC(N)=O	77 µg/mL (≈ 48.9 µM)	145 µg/mL (≈ 92.1 µM)	2500 µg/mL	175 µg/mL (≈ 111 µM)	
N=C(N)NCCC[C@H](NC(=O)[C@H](Cc1c[nH]c2ccccc12)NC(=O)[C@@H](N)CCCNC(=N)N)C(=O)N[C@@H](Cc1c[nH]c2ccccc12)C(=O)NCCCC[C@H](NC(=O)[C@H](Cc1c[nH]c2ccccc12)NC(=O)[C@H](CCCNC(=N)N)NC(=O)[C@H](Cc1c[nH]c2ccccc12)NC(=O)[C@@H](N)CCCNC(=N)N)C(=O)NCCCC[C@H](NC(=O)[C@H](CCCCNC(=O)[C@H](Cc1c[nH]c2ccccc12)NC(=O)[C@H](CCCNC(=N)N)NC(=O)[C@H](Cc1c[nH]c2ccccc12)NC(=O)[C@@H](N)CCCNC(=N)N)NC(=O)[C@H](Cc1c[nH]c2ccccc12)NC(=O)[C@H](CCCNC(=N)N)NC(=O)[C@H](Cc1c[nH]c2ccccc12)NC(=O)[C@@H](N)CCCNC(=N)N)C(=O)NCCC(N)=O (HELM PEPTIDE1{R.W.R.W.K.K.[bAla].[am]}|PEPTIDE2{R.W.R.W}|PEPTIDE3{R.W.R.W.K}|PEPTIDE4{R.W.R.W}$PEPTIDE1,PEPTIDE2,5:R3-4:R2|PEPTIDE3,PEPTIDE4,5:R3-4:R2|PEPTIDE1,PEPTIDE3,6:R3-5:R2$$$V2.0)	16.4 µg/mL (≈ 5.11 µM)	23.6 µg/mL (≈ 7.35 µM)	131 µg/mL		
NCCCC[C@H](N)C(=O)N[C@@H](Cc1c[nH]c2ccccc12)C(=O)NCCCC[C@H](NC(=O)[C@H](Cc1c[nH]c2ccccc12)NC(=O)[C@@H](N)CCCCN)C(=O)NCCCC[C@H](NC(=O)[C@H](CCCCNC(=O)[C@H](Cc1c[nH]c2ccccc12)NC(=O)[C@@H](N)CCCCN)NC(=O)[C@H](Cc1c[nH]c2ccccc12)NC(=O)[C@@H](N)CCCCN)C(=O)NCCC(N)=O	30.6 µg/mL (≈ 17.7 µM)	23.3 µg/mL (≈ 13.5 µM)	1460 µg/mL	52 µg/mL (≈ 30.1 µM)	
O=C(O)c1cn(C2CC2)c2cc(N3CCNCC3)c(F)cc2c1=O [CIPROFLOXACIN]					fold change (FC) (Acinetobacter baumannii [10]): 43

Reference: ChEMBL document CHEMBL3217498, “Structure and antimicrobial properties of multivalent short peptides” (Medchemcomm, 2011)
